Residues, ends and D or L forms follow the SMILES beside them.
Experiments:
[1] = target: Delta-type opioid receptor (Homo sapiens, UniProt P41143)
Description: Agonist activity at delta opioid receptor (unknown origin) expressed in CHO cells

[2] = tested on: Hamster; experiment: Protection against HLE-induced acute lung damage in hamster; format: functional; conditions: Cricetinae
[3] = Half life in human serum; format: ADME, cell-free
[4] = target: Beta-secretase 1 (Homo sapiens, UniProt P56817); experiment: Inhibition of BACE-1 (unknown origin)
[5] = target: D(2) dopamine receptor (Homo sapiens) (UniProt P14416); experiment: Agonist activity at human D2 receptor expressed in NIH/3T3 cells co-expressing beta-galactosidase assessed as increase in beta-galactosidase activity at 10 uM incubated for 5 days by spectrophotometry relative to control; format: cell-based
[6] = target: angiotensin-converting enzyme (Homo sapiens, UniProt P12821); experiment: Drug metabolism assessed as angiotensin converting enzyme (unknown origin)-mediated Gly3-Phe4 cleavage by measuring half life; format: ADME
[7] = Stability in rat plasma assessed as parent compound remaining at 4 hrs; format: ADME, cell-free; conditions: read-out: Stability
[8] = Stability in human plasma assessed as parent compound remaining at 4 hrs; format: ADME, cell-free; conditions: read-out: Stability
[9] = target: Mu-type opioid receptor (Homo sapiens, UniProt P35372); experiment: Agonist activity at mu opioid receptor (unknown origin) expressed in CHO cells; format: cell-based
[10] = target: Kappa-type opioid receptor (Homo sapiens, UniProt P41145); experiment: Agonist activity at kappa opioid receptor (unknown origin) expressed in CHO cells; format: cell-based
Sequence of Kappa-type opioid receptor (P41145 whole entry): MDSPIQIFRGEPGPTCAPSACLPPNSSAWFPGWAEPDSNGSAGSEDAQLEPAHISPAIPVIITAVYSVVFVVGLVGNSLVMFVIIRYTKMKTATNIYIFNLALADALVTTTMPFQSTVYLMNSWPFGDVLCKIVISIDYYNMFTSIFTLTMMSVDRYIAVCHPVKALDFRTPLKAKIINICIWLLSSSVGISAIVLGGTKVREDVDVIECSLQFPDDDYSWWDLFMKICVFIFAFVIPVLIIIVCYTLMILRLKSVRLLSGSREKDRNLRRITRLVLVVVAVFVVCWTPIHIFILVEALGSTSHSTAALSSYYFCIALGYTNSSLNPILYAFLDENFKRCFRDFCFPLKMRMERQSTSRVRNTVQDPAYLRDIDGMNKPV

Sequence of Delta-type opioid receptor (P41143 whole entry): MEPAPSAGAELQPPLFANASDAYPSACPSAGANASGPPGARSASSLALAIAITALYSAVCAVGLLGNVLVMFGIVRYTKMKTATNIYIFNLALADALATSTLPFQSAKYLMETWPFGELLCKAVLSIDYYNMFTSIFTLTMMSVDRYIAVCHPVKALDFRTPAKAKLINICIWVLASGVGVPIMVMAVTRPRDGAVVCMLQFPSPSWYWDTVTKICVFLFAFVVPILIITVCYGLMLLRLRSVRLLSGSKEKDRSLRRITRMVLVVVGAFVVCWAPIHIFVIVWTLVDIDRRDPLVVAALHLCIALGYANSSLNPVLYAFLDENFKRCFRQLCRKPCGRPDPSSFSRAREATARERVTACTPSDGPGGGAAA
Sequence of angiotensin-converting enzyme (P12821 whole entry): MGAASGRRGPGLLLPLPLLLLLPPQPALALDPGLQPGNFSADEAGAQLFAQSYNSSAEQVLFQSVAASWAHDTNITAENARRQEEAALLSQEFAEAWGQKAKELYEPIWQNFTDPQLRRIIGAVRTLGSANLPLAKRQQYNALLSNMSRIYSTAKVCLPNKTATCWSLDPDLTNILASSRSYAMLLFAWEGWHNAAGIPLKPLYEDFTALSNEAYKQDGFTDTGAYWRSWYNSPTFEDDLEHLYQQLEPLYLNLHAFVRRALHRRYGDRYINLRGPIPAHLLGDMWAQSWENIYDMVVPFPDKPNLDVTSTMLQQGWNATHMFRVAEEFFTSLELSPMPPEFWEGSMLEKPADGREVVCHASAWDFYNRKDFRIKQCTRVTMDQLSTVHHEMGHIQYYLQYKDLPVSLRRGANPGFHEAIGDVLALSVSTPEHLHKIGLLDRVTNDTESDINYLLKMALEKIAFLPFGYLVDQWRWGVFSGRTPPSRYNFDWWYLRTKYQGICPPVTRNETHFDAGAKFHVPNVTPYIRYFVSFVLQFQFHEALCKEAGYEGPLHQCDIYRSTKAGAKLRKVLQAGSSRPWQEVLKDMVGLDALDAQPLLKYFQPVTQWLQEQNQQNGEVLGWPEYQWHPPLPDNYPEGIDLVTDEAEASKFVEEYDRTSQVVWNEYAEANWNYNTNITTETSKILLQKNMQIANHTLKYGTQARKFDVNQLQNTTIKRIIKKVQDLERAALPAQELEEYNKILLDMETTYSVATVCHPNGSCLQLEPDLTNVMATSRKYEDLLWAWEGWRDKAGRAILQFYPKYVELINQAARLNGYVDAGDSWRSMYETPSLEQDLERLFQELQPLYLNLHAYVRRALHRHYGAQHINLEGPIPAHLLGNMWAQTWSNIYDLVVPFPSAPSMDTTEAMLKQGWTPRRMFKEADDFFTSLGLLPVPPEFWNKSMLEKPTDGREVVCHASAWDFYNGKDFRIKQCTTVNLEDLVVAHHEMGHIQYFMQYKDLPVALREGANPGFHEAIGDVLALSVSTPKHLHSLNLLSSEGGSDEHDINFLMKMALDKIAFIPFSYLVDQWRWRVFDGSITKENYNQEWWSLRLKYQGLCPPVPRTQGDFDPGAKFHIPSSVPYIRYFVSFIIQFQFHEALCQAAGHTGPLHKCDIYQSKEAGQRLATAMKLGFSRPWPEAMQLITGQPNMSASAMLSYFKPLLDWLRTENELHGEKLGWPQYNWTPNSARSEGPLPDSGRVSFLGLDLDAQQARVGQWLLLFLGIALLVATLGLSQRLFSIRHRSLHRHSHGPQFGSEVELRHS
Sequence of D(2) dopamine receptor (Homo sapiens) (P14416 whole entry): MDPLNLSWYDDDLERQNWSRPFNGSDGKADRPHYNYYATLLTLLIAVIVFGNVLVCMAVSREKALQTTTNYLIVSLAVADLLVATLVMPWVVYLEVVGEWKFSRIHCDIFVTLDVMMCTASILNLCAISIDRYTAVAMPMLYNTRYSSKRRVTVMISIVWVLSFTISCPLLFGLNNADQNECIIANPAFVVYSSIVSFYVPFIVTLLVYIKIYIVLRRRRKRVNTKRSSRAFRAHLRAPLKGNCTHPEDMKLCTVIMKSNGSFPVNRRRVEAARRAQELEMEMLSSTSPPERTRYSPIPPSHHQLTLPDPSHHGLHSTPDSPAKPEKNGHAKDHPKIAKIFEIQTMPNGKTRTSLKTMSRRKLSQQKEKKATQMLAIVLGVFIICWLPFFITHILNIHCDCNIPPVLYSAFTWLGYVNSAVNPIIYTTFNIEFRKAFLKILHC
Sequence of Mu-type opioid receptor (P35372 whole entry): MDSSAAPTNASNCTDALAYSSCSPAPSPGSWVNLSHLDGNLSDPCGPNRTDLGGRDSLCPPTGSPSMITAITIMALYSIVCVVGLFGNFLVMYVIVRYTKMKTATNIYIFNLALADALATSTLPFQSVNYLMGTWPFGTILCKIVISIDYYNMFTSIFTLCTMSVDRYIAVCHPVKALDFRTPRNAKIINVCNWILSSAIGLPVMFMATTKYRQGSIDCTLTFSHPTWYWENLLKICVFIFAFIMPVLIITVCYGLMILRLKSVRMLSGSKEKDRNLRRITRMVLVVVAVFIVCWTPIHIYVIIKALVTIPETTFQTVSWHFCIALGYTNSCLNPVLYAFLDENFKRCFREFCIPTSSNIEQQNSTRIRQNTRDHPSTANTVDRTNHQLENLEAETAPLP
Sequence of Beta-secretase 1 (P56817 whole entry): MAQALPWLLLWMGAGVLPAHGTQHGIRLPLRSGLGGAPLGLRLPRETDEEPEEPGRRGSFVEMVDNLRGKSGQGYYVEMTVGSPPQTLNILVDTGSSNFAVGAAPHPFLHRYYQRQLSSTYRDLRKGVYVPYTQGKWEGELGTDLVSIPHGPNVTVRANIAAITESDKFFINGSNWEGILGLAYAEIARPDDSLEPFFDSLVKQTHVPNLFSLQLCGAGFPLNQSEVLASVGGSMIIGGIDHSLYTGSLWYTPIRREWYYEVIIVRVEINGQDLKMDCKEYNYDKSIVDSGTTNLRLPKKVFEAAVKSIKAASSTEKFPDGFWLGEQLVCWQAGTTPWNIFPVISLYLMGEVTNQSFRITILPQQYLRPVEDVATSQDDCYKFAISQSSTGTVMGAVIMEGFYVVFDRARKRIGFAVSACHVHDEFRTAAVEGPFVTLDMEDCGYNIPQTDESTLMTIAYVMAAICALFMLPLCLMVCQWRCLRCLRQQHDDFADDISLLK

CC(C)C[C@H](NC(=O)[C@@H](/C=C(\F)CNC(=O)CNC(=O)[C@@H](N)Cc1ccc(O)cc1)Cc1ccccc1)C(=O)O
EC50 [1]: 43 nM

CC(C)C(NC(=O)Cn1c(-c2ccc(F)cc2)ncc(N)c1=O)C(=O)C(F)(F)F (stereo not drawn)
ED50 [2]: 7.5 mg/kg

CC(C)C[C@H](NC(=O)[C@H](Cc1ccccc1)NC(=O)CNC(=O)CNC1([C@@H](N)Cc2ccc(O)cc2)COC1)C(=O)O.O=C(O)C(F)(F)F
half-life [3]: 3.2 h

COC(=O)[C@@H]1C[C@H](NC(=O)[C@@H](NC(=O)C[C@H](O)[C@H](Cc2cc(F)cc(F)c2)NC(=O)C(O)c2ccccc2-c2ccccc2)C(C)C)C[C@H](C(=O)OC)C1 (stereo partly drawn)
IC50 [4]: 120 nM

CC(C)C[C@H](NC(=O)[C@@H]1CCCN1)C(=O)NCC(N)=O (H-Pro-Leu-Gly-NH2)
Activity [5]: 146%

CC(C)C[C@H](NC(=O)[C@H](Cc1ccccc1)NC(=O)CNC(=O)CNC(=O)[C@@H](N)Cc1ccc(O)cc1)C(=O)O [ENKEPHALIN]
half-life [6]: 2.17 h

CC(C)C[C@H](NC(=O)[C@H](Cc1ccccc1)NC(=O)CNC1(CNC(=O)[C@@H](N)Cc2ccc(O)cc2)COC1)C(=O)O.O=C(O)C(F)(F)F
half-life [3]: 18 h

Cc1ccc(C[C@H](N)/C(F)=C/CC(=O)NCC(=O)N[C@@H](Cc2ccccc2)C(=O)N[C@@H](CC(C)C)C(=O)O)cc1
remaining at 4 h [7]: 76% | remaining at 4 h [8]: 68% | EC50 [9]: 60 nM | EC50 [10]: > 10 nM | EC50 [1]: 5 nM

CC(C)C[C@H](NC(=O)[C@@H](/C=C/CNC(=O)CNC(=O)[C@@H](N)Cc1ccc(O)cc1)Cc1ccccc1)C(=O)O
EC50 [1]: 587 nM

CC(C)C[C@H](NC(=O)[C@H](Cc1ccccc1)NC(=O)CNC(=O)CNC([C@@H](N)Cc1ccc(O)cc1)C(F)(F)F)C(=O)O (mixture of isomers)
EC50 [1]: > 10 nM

CC(C)C[C@H](NC1([C@H](Cc2ccccc2)NC(=O)CNC(=O)CNC(=O)[C@@H](N)Cc2ccc(O)cc2)COC1)C(=O)O.O=C(O)C(F)(F)F
half-life [3]: 0.433 h | Ki [1]: 43 nM

CC(C)C[C@H](NC(=O)[C@H](Cc1ccccc1)NC1(CNC(=O)CNC(=O)[C@@H](N)Cc2ccc(O)cc2)COC1)C(=O)O.O=C(O)C(F)(F)F
half-life [3]: 0.25 h | Ki [1]: 157 nM
